Laboratory results taken from patent US20220202905A1, “COMPOSITION FOR PREVENTING OR TREATING NEUROTROPHIC KERATITIS WHICH CONTAINS PACAP PEPTIDE OR STABILIZED PACAP PEPTIDE” (SENJU PHARMACEUTICAL CO., LTD., priority 2019, published 2022).
Square brackets hold non-standard residues; d marks the D form. Peptide text beside a SMILES is read from it. Ala(1H-tetrazol-5-yl) = N[C@@H](Cc1nnn[nH]1)C(=O)O; Nle = CCCC[C@H](N)C(=O)O

Test: Peptide stability test, Tris buffer (pH 7.0), 60° C. storage, HPLC remaining rate
Format: physicochemical
Settings: for remaining rate after correction for water, 60° C., 1 week preservation / remaining rate after correction for water, 60° C., 2 weeks preservation: 100 μM in Tris buffer pH 7.0
Procedure: Peptides 1, 2 and 6 to 9 synthesized in Example 2 were weighed and dissolved in Tris buffer (pH 7.0) to prepare 1.0 mM peptide solutions. Each solution was filtered with a Chromatdisk (product of Merck Millipore, Millex-GV, 0.22 μm). The filtrate was diluted to 100 μM with Tris buffer (pH 7.0) and dispensed into a tube (Protein LoBind Tube by Eppendorf Co.). The prepared peptide solutions were incubated for 1 week or 2 weeks in a 60° C. thermostatic bath to obtain stored samples. A simultaneously prepared sample among the peptide solutions that was not stored was used as a standard sample (initial sample). The standard sample and the stored samples were stored at −30° C. until sample analysis. Each stored sample was measured under the following HPLC analysis conditions 2, and the remaining rate after correction for water for each peptide among the stored samples was calculated in the same manner as Example 3. Guard column: XSelect CSH C18 by Waters Co., 5 μm, 4.6×20 mm Guard Cartridge Detection wavelength: 220 nm Mobile phase A: 0.1% formic acid aqueous solution Mobile phase B: 0.1% acetonitrile formate solution Measuring time: 20 minutes Measuring sample injection rate: 50 μL Flow rate: 1.0 mL/min Column temperature: 40° C. Sample cooler: 25° C. Mobile phase delivery: The mixing ratio of mobile phase A and mobile phase B was varied as shown in Table 5 for linear concentration gradient control. Peptides 12 to 25, 27 and 28 synthesized in Example 2 were weighed and dissolved in Tris buffer (pH 7.0) to prepare 1.0 mM peptide solutions. Each solution was filtered with a Chromatdisk (product of Merck Millipore, Millex-GV, 0.22 μm). The filtrate was diluted to 100 μM with Tris buffer (pH 7.0) and dispensed into a tube (Protein LoBind Tube by Eppendorf Co.). The prepared peptide solutions were incubated for one week or 2 weeks in a 60° C. thermostatic bath to obtain stored samples. A simultaneously prepared sample among the peptide solutions that was not stored was used as a standard sample (initial sample). The standard sample and the stored samples were stored at −30° C. until sample analysis. The remaining rate after correction for water for each peptide among the stored samples was calculated in the same manner as Example 4, and the results are shown in Table 7. Peptides 29 to 34 synthesized in Example 2 were weighed and dissolved in Tris buffer (pH 7.0) to prepare 1.0 mM peptide solutions. Each solution was filtered with a Chromatdisk (product of Merck Millipore, Millex-GV, 0.22 μm). The filtrate was diluted to 100 μM with Tris buffer (pH 7.0) and dispensed into a tube (Protein LoBind Tube by Eppendorf Co.). The prepared peptide solutions were incubated for 2 weeks in a 60° C. thermostatic bath to obtain stored samples. A simultaneously prepared sample among the peptide solutions that was not stored was used as a standard sample (initial sample). The standard sample and the stored samples were stored at −30° C. until sample analysis. The remaining rate after correction for water for each peptide among the stored samples was calculated in the same manner as Example 4, and the results are shown in Table 7-2. Peptide 26 synthesized in Example 2 was weighed and dissolved in Tris buffer (pH 7.0) to prepare a 1.0 mM peptide solution. The solution was filtered with a Chromatdisk (product of Merck Millipore, Millex-GV, 0.22 μm). The filtrate was diluted to 100 μM with Tris buffer (pH 7.0) and dispensed into a tube (Protein LoBind Tube by Eppendorf Co.). The prepared peptide solution was incubated for one week or 2 weeks in a 60° C. thermostatic bath to obtain stored samples. A simultaneously prepared sample among the peptide solutions that was not stored was used as a standard sample (initial sample). The standard sample and the stored sample were stored at −30° C. until sample analysis. […]

| remaining rate after correction for water, 60° C., 1 week preservation (Table 6, HPLC conditions 2) | remaining rate after correction for water, 60° C., 2 weeks preservation (Table 6, HPLC conditions 2) | expected remaining rate for 2 years at room temperature (buffer, 336 h) | remaining rate after correction for water, 60° C., 1 week preservation (Table 7) | remaining rate after correction for water, 60° C., 2 weeks preservation (Table 7) | Compound |
| --- | --- | --- | --- | --- | --- |
| 91.7% | 84.8% | – | – | – | CC[C@H](C)[C@H](NC(=O)CNC(=O)[C@H](Cc1nnn[nH]1)NC(=O)[C@H](CO)NC(=O)[C@@H](N)Cc1c[nH]cn1)C(=O)N[C@@H](Cc1ccccc1)C(=O)N[C@H](C(=O)N[C@@H](Cc1nnn[nH]1)C(=O)N[C@@H](CO)C(=O)N[C@@H](Cc1ccc(O)cc1)C(=O)N[C@@H](CO)C(=O)N[C@@H](CCCNC(=N)N)C(=O)N[C@@H](Cc1ccc(O)cc1)C(=O)N[C@@H](CCCNC(=N)N)C(=O)N[C@@H](CCCCN)C(=O)N[C@@H](CCC(N)=O)C(=O)N[C@@H](CC(C)C)C(=O)N[C@@H](C)C(=O)N[C@H](C(=O)N[C@@H](CCCCN)C(=O)N[C@@H](CCCCN)C(=O)N[C@@H](Cc1ccc(O)cc1)C(=O)N[C@@H](CC(C)C)C(=O)N[C@@H](C)C(=O)N[C@@H](C)C(=O)N[C@H](C(=O)N[C@@H](CC(C)C)C(N)=O)C(C)C)C(C)C)[C@@H](C)O [Peptide 7] (H-HS[Ala(1H-tetrazol-5-yl)]GIFT[Ala(1H-tetrazol-5-yl)]SYSRYRKQLAVKKYLAAVL-NH2) |
| – | – | ≥ 90% | – | – | CCCC[C@H](NC(=O)[C@H](CCC(N)=O)NC(=O)[C@H](CCCCN)NC(=O)[C@H](CCCNC(=N)N)NC(=O)[C@H](Cc1ccc(O)cc1)NC(=O)[C@H](CCCNC(=N)N)NC(=O)[C@H](CO)NC(=O)[C@H](Cc1ccc(O)cc1)NC(=O)[C@H](CO)NC(=O)[C@H](Cc1nnn[nH]1)NC(=O)[C@@H](NC(=O)[C@H](Cc1ccccc1)NC(=O)[C@@H](NC(=O)CNC(=O)[C@H](Cc1nnn[nH]1)NC(=O)[C@H](CO)NC(=O)[C@H](Cc1c[nH]cn1)NC(C)=O)[C@@H](C)CC)[C@@H](C)O)C(=O)N[C@@H](C)C(=O)N[C@H](C(=O)N[C@@H](CCCCN)C(=O)N[C@@H](CCCCN)C(=O)N[C@@H](Cc1ccc(O)cc1)C(=O)N[C@@H](CC(C)C)C(=O)N[C@@H](C)C(=O)N[C@@H](C)C(=O)N[C@H](C(=O)N[C@@H](CC(C)C)C(N)=O)C(C)C)C(C)C [Peptide 8] (Ac-HS[Ala(1H-tetrazol-5-yl)]GIFT[Ala(1H-tetrazol-5-yl)]SYSRYRKQ[Nle]AVKKYLAAVL-NH2) |
| – | – | – | 96.7% | 94.5% | CC[C@H](C)[C@H](NC(=O)CNC(=O)[C@H](Cc1nnn[nH]1)NC(=O)[C@H](C)NC(=O)[C@H](Cc1c[nH]cn1)NC(C)=O)C(=O)N[C@@H](Cc1ccccc1)C(=O)N[C@H](C(=O)N[C@@H](Cc1nnn[nH]1)C(=O)N[C@@H](CO)C(=O)N[C@@H](Cc1ccc(O)cc1)C(=O)N[C@@H](CO)C(=O)N[C@@H](CCCNC(=N)N)C(=O)N[C@@H](Cc1ccc(O)cc1)C(=O)N[C@@H](CCCNC(=N)N)C(=O)N[C@@H](CCCCN)C(=O)N[C@@H](CCC(N)=O)C(=O)N[C@@H](CC(C)C)C(=O)N[C@@H](C)C(=O)N[C@H](C(=O)N[C@@H](CCCCN)C(=O)N[C@@H](CCCCN)C(=O)N[C@@H](Cc1ccc(O)cc1)C(=O)N[C@@H](CC(C)C)C(=O)N[C@@H](C)C(=O)N[C@@H](C)C(=O)N[C@H](C(=O)N[C@@H](CC(C)C)C(N)=O)C(C)C)C(C)C)[C@@H](C)O [Peptide 14] (Ac-HA[Ala(1H-tetrazol-5-yl)]GIFT[Ala(1H-tetrazol-5-yl)]SYSRYRKQLAVKKYLAAVL-NH2) |
| – | – | – | 98.1% | 93.5% | CC[C@H](C)[C@H](NC(=O)CNC(=O)[C@H](Cc1nnn[nH]1)NC(=O)[C@H](CO)NC(=O)[C@H](Cc1c[nH]cn1)NC(C)=O)C(=O)N[C@@H](Cc1ccccc1)C(=O)N[C@H](C(=O)N[C@@H](Cc1nnn[nH]1)C(=O)N[C@@H](CO)C(=O)N[C@@H](Cc1ccc(O)cc1)C(=O)N[C@@H](C)C(=O)N[C@@H](CCCNC(=N)N)C(=O)N[C@@H](Cc1ccc(O)cc1)C(=O)N[C@@H](CCCNC(=N)N)C(=O)N[C@@H](CCCCN)C(=O)N[C@@H](CCC(N)=O)C(=O)N[C@@H](CC(C)C)C(=O)N[C@@H](C)C(=O)N[C@H](C(=O)N[C@@H](CCCCN)C(=O)N[C@@H](CCCCN)C(=O)N[C@@H](Cc1ccc(O)cc1)C(=O)N[C@@H](CC(C)C)C(=O)N[C@@H](C)C(=O)N[C@@H](C)C(=O)N[C@H](C(=O)N[C@@H](CC(C)C)C(N)=O)C(C)C)C(C)C)[C@@H](C)O [Peptide 16] (Ac-HS[Ala(1H-tetrazol-5-yl)]GIFT[Ala(1H-tetrazol-5-yl)]SYARYRKQLAVKKYLAAVL-NH2) |
| – | – | – | 97.8% | 93.4% | CC[C@H](C)[C@H](NC(=O)CNC(=O)[C@H](Cc1nnn[nH]1)NC(=O)[C@H](CO)NC(=O)[C@H](Cc1c[nH]cn1)NC(C)=O)C(=O)N[C@@H](Cc1ccccc1)C(=O)N[C@H](C(=O)N[C@@H](Cc1nnn[nH]1)C(=O)N[C@@H](CO)C(=O)N[C@@H](Cc1ccc(O)cc1)C(=O)N[C@@H](CO)C(=O)N[C@@H](CCCNC(=N)N)C(=O)N[C@@H](Cc1ccc(O)cc1)C(=O)N[C@@H](CCCNC(=N)N)C(=O)N[C@@H](CCCCN)C(=O)N[C@@H](C)C(=O)N[C@@H](CC(C)C)C(=O)N[C@@H](C)C(=O)N[C@H](C(=O)N[C@@H](CCCCN)C(=O)N[C@@H](CCCCN)C(=O)N[C@@H](Cc1ccc(O)cc1)C(=O)N[C@@H](CC(C)C)C(=O)N[C@@H](C)C(=O)N[C@@H](C)C(=O)N[C@H](C(=O)N[C@@H](CC(C)C)C(N)=O)C(C)C)C(C)C)[C@@H](C)O [Peptide 17] (Ac-HS[Ala(1H-tetrazol-5-yl)]GIFT[Ala(1H-tetrazol-5-yl)]SYSRYRKALAVKKYLAAVL-NH2) |
| – | – | – | 93.9% | 91.8% | CC[C@H](C)[C@H](NC(=O)CNC(=O)[C@H](Cc1nnn[nH]1)NC(=O)[C@H](CO)NC(=O)[C@H](Cc1c[nH]cn1)NC(C)=O)C(=O)N[C@@H](Cc1ccccc1)C(=O)N[C@H](C(=O)N[C@@H](Cc1nnn[nH]1)C(=O)N[C@@H](CO)C(=O)N[C@@H](Cc1ccc(O)cc1)C(=O)N[C@@H](CO)C(=O)N[C@@H](CCCNC(=N)N)C(=O)N[C@@H](Cc1ccc(O)cc1)C(=O)N[C@@H](CCCNC(=N)N)C(=O)N[C@@H](CCCCN)C(=O)N[C@@H](CCC(N)=O)C(=O)N[C@@H](CC(C)C)C(=O)N[C@@H](C)C(=O)N[C@H](C(=O)N[C@@H](CCCCN)C(=O)N[C@@H](CCCCN)C(=O)N[C@@H](Cc1ccc(O)cc1)C(=O)N[C@@H](CC(C)C)C(=O)N[C@@H](C)C(=O)N[C@@H](C)C(=O)N[C@H](C(=O)N[C@@H](C)C(N)=O)C(C)C)C(C)C)[C@@H](C)O [Peptide 20] (Ac-HS[Ala(1H-tetrazol-5-yl)]GIFT[Ala(1H-tetrazol-5-yl)]SYSRYRKQLAVKKYLAAVA-NH2) |
| – | – | – | 97.8% | 93.5% | CC[C@H](C)[C@H](NC(=O)CNC(=O)[C@H](Cc1nnn[nH]1)NC(=O)[C@H](CO)NC(=O)[C@H](Cc1c[nH]cn1)NC(C)=O)C(=O)N[C@@H](Cc1ccccc1)C(=O)N[C@H](C(=O)N[C@@H](Cc1nnn[nH]1)C(=O)N[C@@H](CO)C(=O)N[C@@H](Cc1ccc(O)cc1)C(=O)N[C@@H](CO)C(=O)N[C@@H](CCCNC(=N)N)C(=O)N[C@@H](Cc1ccc(O)cc1)C(=O)N[C@@H](CCCNC(=N)N)C(=O)N[C@@H](CCCNC(=N)N)C(=O)N[C@@H](CCC(N)=O)C(=O)N[C@@H](CC(C)C)C(=O)N[C@@H](C)C(=O)N[C@H](C(=O)N[C@@H](CCCNC(=N)N)C(=O)N[C@@H](CCCNC(=N)N)C(=O)N[C@@H](Cc1ccc(O)cc1)C(=O)N[C@@H](CC(C)C)C(=O)N[C@@H](C)C(=O)N[C@@H](C)C(=O)N[C@H](C(=O)N[C@@H](CC(C)C)C(N)=O)C(C)C)C(C)C)[C@@H](C)O [Peptide 21] (Ac-HS[Ala(1H-tetrazol-5-yl)]GIFT[Ala(1H-tetrazol-5-yl)]SYSRYRRQLAVRRYLAAVL-NH2) |
